The record followed here is US20100305113A1, “Substituted Imidazopyridazines as Lipid Kinase Inhibitors” (priority 2007, published 2010).

The term IC50 denotes the concentration that inhibits the measured activity by half.

What all share (assay type): biochemical
Common to all, as to conditions: Enzymatic Data

The target in one experiment is T1, PI3K beta (Homo sapiens, UniProt P42338).
T1 construct: for the full-length p110-b subunit are generated and fused by overlapping PCR; p85(iSH2) fusion partner (same polypeptide; see partner chain) (N); Gly linker (N); His tag (C); made in house; host or cells: baculovirus; Tn5 (Trichoplusia ni) or TiniPro insect cells
T1 sequence (P42338 with tags, fused parts or gaps limits assumed): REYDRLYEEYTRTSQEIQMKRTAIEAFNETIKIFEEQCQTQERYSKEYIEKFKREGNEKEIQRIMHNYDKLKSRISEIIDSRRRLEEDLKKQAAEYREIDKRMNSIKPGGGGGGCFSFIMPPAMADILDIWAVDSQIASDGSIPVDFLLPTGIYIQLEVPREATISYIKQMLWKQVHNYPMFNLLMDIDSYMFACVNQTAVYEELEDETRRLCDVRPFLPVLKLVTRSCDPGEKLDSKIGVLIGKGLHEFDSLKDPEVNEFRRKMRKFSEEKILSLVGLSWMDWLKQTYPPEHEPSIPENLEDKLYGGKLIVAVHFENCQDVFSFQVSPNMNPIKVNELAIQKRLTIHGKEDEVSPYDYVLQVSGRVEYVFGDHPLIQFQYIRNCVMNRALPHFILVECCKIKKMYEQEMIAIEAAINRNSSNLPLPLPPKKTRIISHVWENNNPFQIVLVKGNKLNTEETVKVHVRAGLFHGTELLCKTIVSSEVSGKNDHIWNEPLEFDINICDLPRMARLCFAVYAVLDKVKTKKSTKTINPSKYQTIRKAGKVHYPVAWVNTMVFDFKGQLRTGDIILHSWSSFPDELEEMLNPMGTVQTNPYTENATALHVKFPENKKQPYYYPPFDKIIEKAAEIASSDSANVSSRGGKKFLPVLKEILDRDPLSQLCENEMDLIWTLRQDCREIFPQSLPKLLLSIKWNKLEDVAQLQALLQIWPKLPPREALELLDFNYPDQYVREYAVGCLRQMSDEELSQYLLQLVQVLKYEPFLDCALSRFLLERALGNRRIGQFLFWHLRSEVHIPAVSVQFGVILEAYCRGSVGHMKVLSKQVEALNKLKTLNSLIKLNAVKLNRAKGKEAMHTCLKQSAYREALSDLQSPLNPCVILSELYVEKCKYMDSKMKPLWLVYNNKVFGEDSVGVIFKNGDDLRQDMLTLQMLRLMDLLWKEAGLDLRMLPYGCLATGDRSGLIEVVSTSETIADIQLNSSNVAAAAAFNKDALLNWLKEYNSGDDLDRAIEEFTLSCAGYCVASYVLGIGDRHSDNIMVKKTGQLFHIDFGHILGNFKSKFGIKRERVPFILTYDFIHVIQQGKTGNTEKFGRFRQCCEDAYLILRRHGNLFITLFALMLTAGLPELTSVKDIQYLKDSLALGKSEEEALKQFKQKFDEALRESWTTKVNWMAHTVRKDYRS
In words: PI3K beta enzymatic assay (Kinase-Glo luminescence). As to the method:
(§1) In a more preferred assay, the kinase reaction is performed in a final volume of 10 μL per well of a low volume non binding CORNING, 384 well black plate (Cat. No. #3676). The final concentrations of ATP and phosphatidyl inositol (PI) in the assay are 1 μM and 10 μg/mL respectively. The reaction is started by the addition of ATP.
(§2) The components of the assay are added per well as follows:
(§3) 50 nL test compounds in 90% DMSO per well, in columns 1-20, 8 concentrations (⅓ and 1/3.33 serial dilution step) in single. • Low control: 50 nL of 90% DMSO in half the wells of columns 23-24 (0.45% in final). • High control: 50 nL of reference compound (e.g. compound of Example 7 in WO 2006/122806, incorporated by reference herein that regard) in the other half of columns 23-24 (2.5 μM in final). • Standard: 50 nL of reference compound as just mentioned diluted as the test compounds in columns 21-22 • 20 mL ‘buffer’ are prepared per assay: • 200 μL of 1M TRIS HCl pH7.5 (10 mM in final) • 60 μL of 1M MgCl2 (3 mM in final) • 500 μL of 2M NaCl (50 mM in final) • 100 μL of 10% CHAPS (0.05% in final) • 200 μL of 100 mM DTT (1 mM in final) • 18.94 mL of nanopure water • 10 mL ‘PI’ are prepared per assay: • 200 μL of 1 mg/ml L-alpha-Phosphatidylinositol (Liver Bovine, Avanti Polar Lipids Cat. No. 840042C MW=909.12) prepared in 3% OctylGlucoside ([…]) • 9.8 mL of ‘buffer’ • 10 mL ‘ATP’ are prepared per assay: • 6.7 μL of 3 mM stock of ATP giving a final concentration of 1 μM per well • 10 mL of ‘buffer’ • 2.5 mL of each PI3K construct are prepared per assay in ‘PI’ with the following final concentration: • 10 nM PI3K alfa BV-1075 • 25 nM beta BV-949 • 10 nM delta BV-1060 • 150 nM gamma BV-950 • 5 μL of ‘PI/PI3K’ are added per well. • 5 μl ‘ATP’ are added per well to start the reaction. • The plates are then incubated at room temperature for 60 minutes (alfa, beta, delta) or 120 minutes (gamma). • The reaction is terminated by the addition of 10 μL Kinase-Glo (Promega Cat. No. #6714). • The assay plates are read after 10 minutes in Synergy 2 reader (BioTek, Vermont USA) with an integration time of 100 milliseconds and sensitivity set to 191. • Output: The High control is around 60′000 counts and the Low control is 30′000 or lower • This luminescence assay gives a useful Z′ ratio between 0.4 and 0.7 The Z′ value is a universal measurement of the robustness of an assay. A Z′ between 0.5 and 1.0 is considered an excellent assay.
PI3Kβ BV-949 p85(iSH2)-Gly linker-p110b (Full-Length)-C-Term His Tag
(§4) IC50 is determined by a four parameter curve fitting routine that comes aloneg with “excel fit”. A 4 Parameter logistic equation is used to calculate IC50 values (IDBS XLfit) of the percentage inhibition of each compound at 8 concentrations (usually 10, 3.0, 1.0, 0.3, 0.1, 0.030, 0.010 and 0.003 μM). Alternatively, IC50 values are calculated using idbsXLfit model 204, which is a 4 parameter logistic model.
In general terms: In Kinase-Glo more light means more ATP remaining.

For the next experiment, the target named is T2, PI3K gamma (Homo sapiens, UniProt P48736).
T2 construct: His tag (C); made in house; host or cells: construct from Roger Williams lab (MRC LMB); baculovirus (pVL1393); Tn5 (Trichoplusia ni) or TiniPro insect cells
T2 sequence (P48736 144-1102 limits assumed): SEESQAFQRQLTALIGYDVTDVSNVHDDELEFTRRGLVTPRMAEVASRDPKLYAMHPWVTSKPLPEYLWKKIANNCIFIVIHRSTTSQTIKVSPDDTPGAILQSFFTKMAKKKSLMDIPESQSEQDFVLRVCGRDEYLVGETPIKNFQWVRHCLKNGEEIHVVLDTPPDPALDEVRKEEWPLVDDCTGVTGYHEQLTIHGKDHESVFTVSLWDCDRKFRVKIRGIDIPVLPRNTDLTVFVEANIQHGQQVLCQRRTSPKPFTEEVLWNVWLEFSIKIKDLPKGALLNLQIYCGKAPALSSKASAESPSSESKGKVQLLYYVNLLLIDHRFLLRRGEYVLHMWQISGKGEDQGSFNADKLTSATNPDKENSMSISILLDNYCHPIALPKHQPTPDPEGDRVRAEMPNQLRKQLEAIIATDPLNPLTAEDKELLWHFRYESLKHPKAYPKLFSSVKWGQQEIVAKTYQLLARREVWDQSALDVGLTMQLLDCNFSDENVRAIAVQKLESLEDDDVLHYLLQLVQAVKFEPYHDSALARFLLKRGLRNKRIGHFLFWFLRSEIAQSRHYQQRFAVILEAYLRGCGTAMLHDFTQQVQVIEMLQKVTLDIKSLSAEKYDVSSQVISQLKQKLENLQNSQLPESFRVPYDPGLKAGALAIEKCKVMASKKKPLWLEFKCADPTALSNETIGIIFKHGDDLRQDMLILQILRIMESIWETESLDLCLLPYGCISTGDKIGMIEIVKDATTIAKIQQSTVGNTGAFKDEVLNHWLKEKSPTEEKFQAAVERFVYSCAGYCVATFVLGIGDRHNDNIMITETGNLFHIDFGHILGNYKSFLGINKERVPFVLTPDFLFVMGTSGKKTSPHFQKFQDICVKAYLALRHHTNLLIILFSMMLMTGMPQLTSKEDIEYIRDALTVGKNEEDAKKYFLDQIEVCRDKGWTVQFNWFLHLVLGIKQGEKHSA
In words: PI3K gamma enzymatic assay (Kinase-Glo luminescence). As to the method:
as §1, §2, §3, §4

The target of the next experiment is T3, PI3K delta (Homo sapiens, UniProt O00329).
T3 construct: for the full-length p110-d subunit are generated and fused by overlapping PCR; p85(iSH2) fusion partner (same polypeptide; see partner chain) (N); Gly linker (N); His tag (C); made in house; host or cells: baculovirus; Tn5 (Trichoplusia ni) or TiniPro insect cells
T3 sequence (O00329 with tags, fused parts or gaps limits assumed): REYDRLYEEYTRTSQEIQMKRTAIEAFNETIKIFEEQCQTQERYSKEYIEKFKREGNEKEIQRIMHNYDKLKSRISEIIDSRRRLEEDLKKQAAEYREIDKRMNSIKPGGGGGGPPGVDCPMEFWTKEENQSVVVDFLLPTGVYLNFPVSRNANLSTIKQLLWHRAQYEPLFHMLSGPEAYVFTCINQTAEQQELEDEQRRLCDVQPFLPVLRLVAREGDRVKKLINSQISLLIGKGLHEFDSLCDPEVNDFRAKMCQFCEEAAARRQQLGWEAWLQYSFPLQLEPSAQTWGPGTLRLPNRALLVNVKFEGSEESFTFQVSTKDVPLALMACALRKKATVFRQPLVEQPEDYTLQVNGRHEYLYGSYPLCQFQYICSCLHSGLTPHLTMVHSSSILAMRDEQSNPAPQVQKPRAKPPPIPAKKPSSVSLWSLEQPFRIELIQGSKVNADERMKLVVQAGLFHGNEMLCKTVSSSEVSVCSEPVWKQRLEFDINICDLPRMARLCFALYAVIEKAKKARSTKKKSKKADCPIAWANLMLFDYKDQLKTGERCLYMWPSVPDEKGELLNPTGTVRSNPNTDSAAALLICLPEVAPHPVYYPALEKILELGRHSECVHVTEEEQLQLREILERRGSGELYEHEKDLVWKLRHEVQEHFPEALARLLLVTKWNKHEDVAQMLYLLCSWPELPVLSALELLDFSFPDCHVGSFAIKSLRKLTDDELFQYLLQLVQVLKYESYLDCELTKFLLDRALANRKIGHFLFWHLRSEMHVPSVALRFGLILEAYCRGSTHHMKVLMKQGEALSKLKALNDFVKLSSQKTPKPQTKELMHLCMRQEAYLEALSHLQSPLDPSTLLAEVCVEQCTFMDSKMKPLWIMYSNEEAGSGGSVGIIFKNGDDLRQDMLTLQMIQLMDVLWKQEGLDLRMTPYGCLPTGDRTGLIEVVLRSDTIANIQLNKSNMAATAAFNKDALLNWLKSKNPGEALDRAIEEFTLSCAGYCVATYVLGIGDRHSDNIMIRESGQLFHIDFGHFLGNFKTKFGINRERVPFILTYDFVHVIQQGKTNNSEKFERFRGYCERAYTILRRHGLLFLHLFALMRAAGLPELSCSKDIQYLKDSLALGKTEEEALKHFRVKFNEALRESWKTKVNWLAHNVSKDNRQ
Kind of experiment: PI3K delta enzymatic assay (Kinase-Glo luminescence). As to the method:
as §1, §2, §3
PI3Kδ BV-1060 p85(iSH2)-Gly Linker-p110d (Full-Length)-C-term His Tact
as §4

A further experiment addresses T4, PI3K alfa (Homo sapiens, UniProt P42336).
T4 construct: p85(iSH2) fusion partner (same polypeptide; see partner chain) (N); 12x Gly linker (N); His tag (C); made in house; host or cells: baculovirus; Tn5 (Trichoplusia ni) or TiniPro insect cells
Kind of experiment: PI3K alfa enzymatic assay (Kinase-Glo luminescence). On the procedure:
as §1, §2, §3, §4

T4 sequence (P42336 with tags, fused parts or gaps limits assumed): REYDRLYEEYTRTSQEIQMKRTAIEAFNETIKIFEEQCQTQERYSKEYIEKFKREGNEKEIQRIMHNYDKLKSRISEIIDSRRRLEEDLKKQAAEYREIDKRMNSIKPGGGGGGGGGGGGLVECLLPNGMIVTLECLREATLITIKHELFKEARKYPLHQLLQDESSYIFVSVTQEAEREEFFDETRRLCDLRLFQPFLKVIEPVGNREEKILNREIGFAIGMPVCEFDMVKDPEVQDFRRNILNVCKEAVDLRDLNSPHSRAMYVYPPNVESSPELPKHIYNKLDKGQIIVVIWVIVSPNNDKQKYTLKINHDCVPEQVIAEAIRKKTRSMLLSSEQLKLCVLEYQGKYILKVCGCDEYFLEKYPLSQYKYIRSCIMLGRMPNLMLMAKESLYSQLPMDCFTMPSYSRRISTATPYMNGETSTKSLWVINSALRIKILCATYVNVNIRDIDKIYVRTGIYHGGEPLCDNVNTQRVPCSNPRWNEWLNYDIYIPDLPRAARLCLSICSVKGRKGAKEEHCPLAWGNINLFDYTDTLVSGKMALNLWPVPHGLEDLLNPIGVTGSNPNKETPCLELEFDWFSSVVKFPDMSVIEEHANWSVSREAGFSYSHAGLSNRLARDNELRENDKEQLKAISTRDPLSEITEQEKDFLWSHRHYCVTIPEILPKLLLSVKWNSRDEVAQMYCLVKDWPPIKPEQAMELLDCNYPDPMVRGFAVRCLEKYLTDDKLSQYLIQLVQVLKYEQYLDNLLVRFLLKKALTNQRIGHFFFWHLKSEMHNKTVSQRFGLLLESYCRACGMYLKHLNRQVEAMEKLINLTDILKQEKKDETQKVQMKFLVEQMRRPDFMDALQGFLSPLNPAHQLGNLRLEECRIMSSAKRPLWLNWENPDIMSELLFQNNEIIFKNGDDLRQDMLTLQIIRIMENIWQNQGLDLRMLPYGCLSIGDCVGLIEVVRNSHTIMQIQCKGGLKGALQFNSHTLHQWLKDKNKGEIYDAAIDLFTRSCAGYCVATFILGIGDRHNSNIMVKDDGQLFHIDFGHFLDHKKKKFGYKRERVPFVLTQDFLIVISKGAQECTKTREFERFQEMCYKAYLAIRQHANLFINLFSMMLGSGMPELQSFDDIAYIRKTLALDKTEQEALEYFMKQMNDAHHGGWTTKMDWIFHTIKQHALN

In the case of `COc1cc(-c2ccc3nc(C)c(-c4cnc(N)c(C(F)(F)F)c4)n3n2)ccc1OCCCNC(=O)C(F)(F)F` [Example 85, N-(3-{4-[3-(6-Amino-5-trifluoromethyl-pyridin-3-yl)-2-methyl-imidazo[1,2-b]pyridazin-6-yl]-2-methoxy-phenoxy}-propyl)-2,2,2-trifluoro-acetamide], the IC50 on PI3K beta was > 9.1 µM; on PI3K gamma, 2.59 µM; on PI3K delta, 3.49 µM; on PI3K alfa, 0.244 µM.
The corresponding values for `CCS(=O)(=O)c1ccc(-c2c(C)nc3ccc(-c4ccc(OC5CCNCC5)c(OC)c4)nn23)cc1` [Example 102, 3-(4-Ethanesulfonyl-phenyl)-6-[3-methoxy-4-(piperidin-4-yloxy)-phenyl]-2-methyl-imidazo[1,2-b]pyridazine] are > 9.1 µM, > 9.1 µM, 2.56 µM and 2.99 µM.
Turning to `CCS(=O)(=O)c1ccc(-c2c(C)nc3ccc(-c4ccc(OC5CCN(C(=O)OC(C)(C)C)CC5)c(OC)c4)nn23)cc1` [Example 99, 4-{4-[3-(4-Ethanesulfonyl-phenyl)-2-methyl-imidazo[1,2-b]pyridazin-6-yl]-2-methoxy-phenoxy}-piperidine-1-carboxylic acid tert-butyl ester], the IC50 on PI3K beta, at PI3K gamma, at PI3K delta and on PI3K alfa was > 9.1 µM each time.
For the compound `COc1cc(-c2ccc3nc(C)c(-c4cnc(N)c(C(F)(F)F)c4)n3n2)ccc1OCCN` [Example 24, 5-{6-[4-(2-Amino-ethoxy)-3-methoxy-phenyl]-2-methyl-imidazo[1,2-b]pyridazin-3-yl}-3-trifluoromethyl-pyridin-2-ylamine], the IC50 worked out at 0.051 µM at PI3K beta, 0.211 µM at PI3K gamma, 0.052 µM at PI3K delta and 0.039 µM at PI3K alfa.
On to `COc1ccc(-c2ccc3nc(C)c(-c4ccc(C#N)nc4)n3n2)cc1OC` [Example 4], for which the IC50 stood at 1.21 µM at PI3K beta, 0.345 µM at PI3K gamma, 0.152 µM on PI3K delta and 0.044 µM at PI3K alfa.
With `COc1ccc(-c2ccc3nc(C)c(-c4cnccn4)n3n2)cc1OC` [Example 17, 6-(3,4-Dimethoxy-phenyl)-2-methyl-3-pyrazin-2-yl-imidazo[1,2-b]pyridazine], the IC50 at PI3K beta was 4.48 µM; on PI3K gamma it was 0.797 µM; at PI3K delta, 2.02 µM; on PI3K alfa, 0.181 µM.
The corresponding values for `COc1cc(-c2ccc3nc(C)c(-c4cnc(N)c(C(F)(F)F)c4)n3n2)ccc1OCCNC(=O)c1ccc(N2CCOCC2)cc1` [Example 94, N-(2-{4-[3-(6-Amino-5-trifluoromethyl-pyridin-3-yl)-2-methyl-imidazo[1,2-b]pyridazin-6-yl]-2-methoxy-phenoxy}-ethyl)-4-morpholin-4-yl-benzamide] are > 9.1 µM, > 9.1 µM, 6.78 µM and 0.367 µM.
The corresponding values for `COc1cc(-c2ccc3nc(C)c(-c4cnc(N)c(C(F)(F)F)c4)n3n2)ccc1OCCNC(=O)Nc1cccnc1` [Example 51] are > 9.1 µM, 2.52 µM, 1.66 µM and 0.028 µM.
Take `COc1ccc(-c2ccc3nc(C)c(-c4ccnc(N(C)CCN(C)C)n4)n3n2)cc1OC` [Example 88, N-{4-[6-(3,4-Dimethoxy-phenyl)-2-methyl-imidazo[1,2-b]pyridazin-3-yl]-pyrimidin-2-yl}-N,N′,N′-trimethyl-ethane-1,2-diamine]: the IC50 is 3.03 µM on PI3K beta, 0.098 µM on PI3K gamma, 0.041 µM on PI3K delta and 0.051 µM on PI3K alfa.
As to `COc1ccc(-c2c(C)nc3ccc(-c4ccc(OC)c(OC)c4)nn23)cn1` [Example 3], the IC50 at PI3K beta was determined as 2.31 µM; on PI3K delta it was 0.514 µM; on PI3K alfa it was 0.0964 µM.
